Measured values taken from PMC10959927, “Platinum iodido drugs show potential anti-tumor activity, affecting cancer cell metabolism and inducing ROS and senescence in gastrointestinal cancer cells” (Communications Biology, 2024).
“And” between values parts separate entries of the source, which are not always exact repeats. Equal entries are not always repeated.

Experiments:
Assay type in all cases: cell-based, human
[1] = system: telomeres, 36B4, MT-COX1, MT-CYB DNA of MKN45 cells; assay: Oxidized bases (FPG-sensitive lesions) in genome regions by qPCR; conditions: MKN45, IC50 concentration 24 h, normalized to control, single replicates
Description: (§1) Total cellular DNA from MKN45 and PANC1 cells was extracted using an NZY Tissue gDNA Isolation Kit (Nzytech, MB13503) following the manufacturer’s instructions and quantified using a Nanodrop (Nanodrop Spectrophotometer ND-1000, ThermoFisher Scientific, Wilmington, DE, USA). We adapted the procedure described by O’Callaghan et al.[76] to measure oxidative DNA damage at telomeres, 36B4 genomic region and at mitochondrial DNA (MT-COX1, MT-CYB). This is a qPCR method based on differences in PCR kinetics between DNA template digested by Formamidopyrimidine DNA Glycosylase (FPG, Cat no. M0240S) and undigested DNA. This enzyme recognizes and cuts 8-oxoguanine, producing apurinic sites that are converted into single-strand breaks by its apurinic sites lyase activity. These single-strand breaks inhibit the PCR, thus, the ΔCT after digesting DNA by […] (Ct digested–Ct undigested) is proportional to the oxidative damage in the amplified region. DNA was incubated with 8 Units of FPG during 3 h in FPG buffer (NEB1, M0240S). The reaction was stopped by incubation at 95 °C for 5 min. qPCR analysis was performed on 40 ng of digested or undigested genomic DNA. Each qPCR was performed in triplicate including no-template controls in a StepOne Real‐time PCR System (Applied Biosystems, 4376357). Target genes (Table 3) were amplified using SYBR Green (Applied Biosystems, MB345). Thermal cycling of the qPCR reaction was initiated with a denaturation step at 95 °C for 10 min. The process consisted of 40 cycles (denaturation at 95 °C for 15 sec, annealing at 60 °C for 30 sec, and elongation at 72 °C for 30 sec). This experiment was repeated three independent times with 10–12 replicates.

[2] = system: telomeres, 36B4, MT-COX1, MT-CYB DNA of PANC1 cells; assay: as above; conditions: PANC1, IC50 concentration 24 h, normalized to control, single replicates
Description: as §1

AGS cells [3] = assay: Flow cytometry mitochondrial mass and membrane potential (MitoTracker Green / CMXRos); conditions: fold change vs C, replicates
Method: (§2) We used flow cytometry to study the mitochondrial mass, mitochondrial membrane potential (ΔΨm) and cellular senescence of untreated and treated cells. Cells (5 × 10^4) were seeded in 24-multiwell dishes and cultured overnight. […] Cells were tripsinized, stained with Mitoprobes and resuspended in Flow buffer [1X PBS; 3% Fetal Bovine Serum (v/v); 3 mM EDTA (v/v)] before analysis with a 4-laser Attune NxT Acoustic Cytometer (Thermo Fisher Scientific). For Mitoprobe assays, […] DAPI (Sigma) was used to exclude dead cells. Data were analyzed with FlowJo 9.3 software (Tree Star Inc., Ashland, OR). For mitochondrial mass and ΔΨm measurement, Mitotracker Green (MTGreen, M7514, Invitrogen) and Mitotracker Red CMXRos (CMXROS, M7512, Invitrogen) were used, respectively. Probes were incubated with cells for 30 min at 37 °C at a concentration of 100 nM (MTGreen) and 20 nM (CMXROS), and fluorescence was detected using the filters (Ex488nm/Em530/30) BL1 and (Ex561nm/Em585/16) YL1, respectively. To determine mitochondria functionality, the ratio between ΔΨm (MitoTracker Red CMXRos) versus Mit. Mass (MitoTracker Green) was calculated. The gating strategy used in all the Flow Cytometry experiments is reflected in Fig.S10.

MKN45 cells [4] = assay: as above
Method: as §2

PANC1 cells [5] = assay: as above
Method: as §2

AGS cells [6] = assay: RT-qPCR gene expression (CDKN1A, IL6, MMP1, MAP2K3, SOD1, SOD2, CAT, MKI67, TNFRSF10D)
Method: (§3) Total cellular RNA was extracted using Tri-Reagent (Life Technologies), following the manufacturer’s instructions. One μg of total RNA was primed with random primers and cDNA synthesized with an M-MLV reverse transcriptase following the manufacturer’s instructions (Promega). Target genes were amplified using a SYBR Green polymerase chain reaction assay, working with the specific primer sets listed in Table 4.
(§4) Thermal cycling of the qPCR reaction was initiated with a denaturation step at 95 °C for 10 min. The process consisted of 40 cycles (denaturation at 95 °C for 15 sec, annealing at 60 °C for 30 sec, and elongation at 75 °C for 30 sec). PCR amplifications were carried out in a StepOne Real‐time PCR System (Applied Biosystems, 4376357). Relative mRNA levels were calculated by the delta-Ct method (2-ΔΔCt), where each 1-Ct difference equals a two-fold change in transcript abundance, using GAPDH as an endogenous gene reference. ΔΔCT represents the difference between the mean ΔCT value of the cells tested and the mean ΔCT value of the calibrator, both calculated for the same PCR run.

MKN45 cells [7] = assay: as above
Method: as §3, §4

PANC1 cells [8] = assay: as above
Method: as §3, §4

[9] = MKN45, fold change vs C, replicates
[10] = PANC1, fold change vs C, replicates
[11] = MKN45, Fig. 3C, replicate values
[12] = PANC1, Fig. 3C, replicate values

## CC(C)[NH][Pt@SP1]([I])([I])[NH]C(C)C [I6, cis-[PtI2(isopropylamine)2]]
[1]; FPG-digested vs undigested
  TEL (Fold change - ΔCt TEL), oxidative DNA damage: 0.7872 and 0.7903 and 0.6876 and 0.7373 and 0.6171 and 1.142 and 1.077 and 1.074 and 1.391
[1]
  36B4 (Fold change - ΔCt 36B4), oxidative DNA damage: 0.9227 and 0.9306 and 1.569 and 1.862 and 2.074 and 2.392 and 1.861 and 2.101 and 1.707 and 2.034
  MT-COX1 (Fold change - ΔCt MT-COX1), oxidative DNA damage: 1.321 and 1.289 and 1.307 and 1.545 and 0.7235 and 0.8203 and 2.299 and 2.595 and 3.243 and 4.134
  MT-CYB (Fold change - ΔCt MT-CYB), oxidative DNA damage: 1.235 and 1.231 and 1.262 and 1.5934 and 1.492 and 1.356 and 1.4814 and 1.489 and 0.5469 and 0.6464 and 1.605
[2]; FPG-digested vs undigested
  TEL (Fold change - ΔCt TEL), oxidative DNA damage: 5.579 and 4.9877 and 4.471 and 0.2398 and 0.9572 and 1.407 and 2.172 and 1.711 and 1.673 and 1.777
[2]
  36B4 (Fold change - ΔCt 36B4), oxidative DNA damage: 1.888 and 2.028 and 1.034 and 1.832 and 3.4044 and 3.392 and 3.578 and 2.951 and 2.103 and 2.482
  MT-COX1 (Fold change - ΔCt MT-COX1), oxidative DNA damage: 1.444 and 1.678 and 1.516 and 1.609 and 1.88 and 0.5367 and 1.4145 and 1.209 and 1.263 and 1.421
  MT-CYB (Fold change - ΔCt MT-CYB), oxidative DNA damage: 1.356 and 1.264 and 1.349 and 1.774 and 2.04 and 1.998 and 2.191 and 4.689 and 8.16 and 4.981 and 6.184
AGS cells [3]
  Fold change %CMXROS, ΔΨm: 0.58 and 0.29 and 0.42
  Fold change %MTGreen, MM: 0.83 and 0.75 and 1.298
MKN45 cells [4]; MKN45, IC50 doses 24 h, CMX-ROS/MitoGreen ratio vs untreated 1.0
  Fold change ΔΨm/MM: 0.26 and 0.21 and 0.27
MKN45 cells [4]; [9]
  Fold change %CMXROS, ΔΨm: 0.24 and 0.19 and 0.3
  Fold change %MTGreen, MM: 0.93 and 0.91 and 1.1
PANC1 cells [5]; PANC1, IC50 doses 24 h, CMX-ROS/MitoGreen ratio vs untreated 1.0
  Fold change ΔΨm/MM: 0.61 and 0.39 and 0.44
PANC1 cells [5]; [10]
  Fold change %CMXROS, ΔΨm: 0.75 and 0.98 and 0.61
  Fold change %MTGreen, MM: 1.22 and 2.53 and 2.1
AGS cells [6]; Fig. 3C, replicate values
  CDKN1A, Fold change vs GAPDH: 7.239 fold change and 5.782 fold change and 9.064 fold change
  IL-6, Fold change vs GAPDH: 1.072 fold change and 0.8542 fold change and 0.2227 fold change
  MMP-1, Fold change vs GAPDH: 528.599 fold change and 466.082 fold change and 599.501 fold change
AGS cells [6]; Fig. 4B, replicate values
  Fold change MAP2K3 vs GAPDH: 14.3277 fold change and 13.4406 fold change and 15.2735 fold change
AGS cells [6]; Fig. S4C
  MKI67 Fold change vs GAPDH: 0.8471 fold change and 0.6697 fold change and 1.072 fold change
  TNFRSF10D Fold change vs GAPDH: 16.1948 fold change and 12.3693 fold change and 21.2034 fold change
AGS cells [6]; mRNA vs Control = 1
  CAT (Fold change vs GAPDH): 0.4383 Fold change and 0.3857 Fold change and 0.4982 Fold change
  SOD1 (Fold change vs GAPDH): 1.81 Fold change and 1.501 Fold change and 2.182 Fold change
  SOD2 (Fold change vs GAPDH): 0.6611 Fold change and 0.5938 Fold change and 0.736 Fold change
MKN45 cells [7]; MKN45, Fig. S4C
  MKI67 Fold change vs GAPDH: 0.2699 fold change and 0.2509 fold change and 0.2902 fold change
  TNFRSF10D Fold change vs GAPDH: 0.3106 fold change and 0.2548 fold change and 0.3786 fold change
MKN45 cells [7]; MKN45, mRNA vs Control = 1
  CAT (Fold change vs GAPDH): 1.125 Fold change and 0.8671 Fold change and 1.459 Fold change
  SOD1 (Fold change vs GAPDH): 1.504 Fold change and 1.381 Fold change and 1.638 Fold change
  SOD2 (Fold change vs GAPDH): 2.631 Fold change and 2.276 Fold change and 3.26 Fold change
MKN45 cells [7]; [11]
  CDKN1A, Fold change vs GAPDH: 1.257 fold change and 1.116 fold change and 1.417 fold change
  IL-6, Fold change vs GAPDH: 1.298 fold change and 0.9165 fold change and 1.735 fold change
  MMP-1, Fold change vs GAPDH: 2.795 fold change and 2.229 fold change and 3.504 fold change
MKN45 cells [7]; MKN45, Fig. 4B, replicate values
  Fold change MAP2K3 vs GAPDH: 2.445 fold change and 2.003 fold change and 2.985 fold change
PANC1 cells [8]; PANC1, Fig. S4C
  MKI67 Fold change vs GAPDH: 1.187 fold change and 1.0074 fold change and 1.3984 fold change
  TNFRSF10D Fold change vs GAPDH: 1.308 fold change and 1.177 fold change and 1.453 fold change
PANC1 cells [8]; PANC1, mRNA vs Control = 1
  CAT (Fold change vs GAPDH): 1.283 Fold change and 1.157 Fold change and 1.422 Fold change
  SOD1 (Fold change vs GAPDH): 1.212 Fold change and 1.267 Fold change and 1.413 Fold change
  SOD2 (Fold change vs GAPDH): 0.7792 Fold change and 0.7372 Fold change and 0.8236 Fold change
PANC1 cells [8]; [12]
  CDKN1A, Fold change vs GAPDH: 0.7609 fold change and 0.6464 fold change and 0.8957 fold change
  IL-6, Fold change vs GAPDH: 2.029 fold change and 0.6879 fold change and 5.985 fold change
  MMP-1, Fold change vs GAPDH: 1.768 fold change and 1.572 fold change and 2.113 fold change
PANC1 cells [8]; PANC1, Fig. 4B, replicate values
  Fold change MAP2K3 vs GAPDH: 1.382 fold change and 1.186 fold change and 1.609 fold change
